From ChEMBL document CHEMBL5614393, “Thioamides in medicinal chemistry and as small molecule therapeutic agents” (Eur J Med Chem, 2024) come the findings set out here.

Usually IC50 stands for the point on the concentration scale where inhibition reaches its midpoint. Usually EC50 stands for the concentration needed to bring the measured effect to its halfway point. The GI50 is the concentration that inhibits growth by half. Usually inhibition stands for the relative decrease from the control value, in per cent. A word on the half-life: it is how long it takes for the measured level to halve. As a reminder, the MIC50 is an inhibitory concentration at the 50% level, which refers to growth in some studies and to a panel of isolates in others.

In brackets after ≈: the same amount, converted by molar mass.

The nature of series [1]: Antioxidant activity assessed as DPPH radical scavenging activity. In kind it is functional. Background: Loss of DPPH colour is used to gauge radical scavenging.
For series [2], the system named is MCF7. The experiment in a line: Cytotoxicity against human MCF7 cells assessed as reduction in cell viability incubated for 48 hrs by MTT assay. The format is functional, cell-based. To be noted: MCF7, 48 h.
Series [3] concerns the target Epidermal growth factor receptor (Homo sapiens, UniProt P00533). The experiment in a line: Inhibition of EGFR (unknown origin).
The nature of series [4]: Inhibition of urease (unknown origin).
Series [5] deals with MCF7. In words: Cytotoxicity against human MCF7 cells assessed as reduction in cell growth by MTT colorimetric assay. In kind it is functional, cell-based.
For a further series, the system named is PC-3. The experiment in a line: Cytotoxicity against human PC-3 cells assessed as reduction in cell growth by MTT colorimetric assay. In kind it is functional, cell-based. Background: Formazan colour is commonly taken as a measure of viable cells.
Series [6] has as its system HepG2. The experiment in a line: Cytotoxicity against human HepG2 cells assessed as reduction in cell growth by MTT colorimetric assay. The format is functional, cell-based.
A further series deals with Carbonic anhydrase 2 (Homo sapiens, UniProt P00918). The experiment in a line: Inhibition of human carbonic anhydrase II.
The next series deals with Carbonic anhydrase 1 (Homo sapiens, UniProt P00915). The experiment in a line: Inhibition of human carbonic anhydrase I.
The test system of the next series is SARS-CoV-2. The experiment in a line: Antiviral activity against SARS-CoV-2 infected in African green monkey Vero E6 cells incubated for 48 hrs by plaque reduction assay. The format is functional, organism-based. To be noted: Severe acute respiratory syndrome coronavirus 2, Vero C1008, 48 h. In general terms: Plaque reduction counts the foci of infection that form in a cell layer.

For series [7], the system named is HCT-116. In words: Growth inhibition of human HCT-116 cells by SRB assay. The format is functional.
The target in series [8] is NAD-dependent protein deacylase sirtuin-5, mitochondrial (Homo sapiens, UniProt Q9NXA8). The experiment in a line: Inhibition of SIRT5 (unknown origin).
Series [9] concerns the target NAD-dependent protein deacetylase sirtuin-3, mitochondrial (Homo sapiens, UniProt Q9NTG7). The experiment in a line: Inhibition of SIRT3 (unknown origin).
The test system of series [10] is HCT-116. The experiment in a line: Cytotoxicity against human HCT-116 cells assessed as reduction in cell growth incubated for 24 hrs by MTT assay. The format is functional, cell-based. Conditions: HCT-116, 24 h.
Series [11] concerns MCF7. In words: Cytotoxicity against human MCF7 cells assessed as reduction in cell growth incubated for 24 hrs by MTT assay. The format is functional, cell-based. To be noted: MCF7, 24 h.
Series [12] in a line: AUClast in mouse at 40 mg/kg, ip. In kind it is ADME, organism-based. To be noted: in vivo.
Series [13] deals with MDA-MB-231. In words: Antiproliferative activity against human MDA-MB-231 cells overexpressing PHGDH assessed as reduction in cell growth. In kind it is functional, cell-based.
Series [14] relates to MDA-MB-231. The experiment in a line: Antiproliferative activity against human MDA-MB-231 cells. In kind it is functional, cell-based.
The subject of series [15] is HCT-116. In words: Antiproliferative activity against human HCT-116 cells. In kind it is functional, cell-based.
Series [16] deals with HepG2. The experiment in a line: Antiproliferative activity against human HepG2 cells. In kind it is functional, cell-based.
The test system of series [17] is MCF7. In words: Antiproliferative activity against human MCF7 cells. In kind it is functional, cell-based.
The subject of another series is HL-60. In words: Antiproliferative activity against human HL-60 cells overexpressing PHGDH assessed as reduction in cell growth. In kind it is functional, cell-based.
A further series relates to SiHa. In words: Antiproliferative activity against human SiHa cells overexpressing PHGDH assessed as reduction in cell growth. In kind it is functional, cell-based.
In series [18] the target is NAD-dependent protein deacetylase sirtuin-1 (Homo sapiens, UniProt Q96EB6). The experiment in a line: Inhibition of SIRT1 (unknown origin).
The target of series [19] is T1, NAD-dependent protein deacetylase sirtuin-2 (Homo sapiens, UniProt Q8IXJ6).
T1 sequence (Q8IXJ6 whole entry): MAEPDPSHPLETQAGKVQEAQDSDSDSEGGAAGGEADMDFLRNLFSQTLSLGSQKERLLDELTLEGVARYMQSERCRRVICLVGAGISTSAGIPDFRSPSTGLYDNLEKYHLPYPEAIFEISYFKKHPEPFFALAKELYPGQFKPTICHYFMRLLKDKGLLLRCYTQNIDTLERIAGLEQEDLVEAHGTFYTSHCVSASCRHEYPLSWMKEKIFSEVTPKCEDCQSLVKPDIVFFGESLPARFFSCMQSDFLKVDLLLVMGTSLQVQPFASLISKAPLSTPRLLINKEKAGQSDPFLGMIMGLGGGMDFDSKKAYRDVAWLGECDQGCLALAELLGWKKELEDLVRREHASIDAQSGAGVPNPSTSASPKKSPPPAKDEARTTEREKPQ
The experiment in a line: Inhibition of SIRT2 (unknown origin).

The species named for the next series is Homo sapiens. In words: Inhibition of NOS (unknown origin) at 15.6 uM relative to control.
Series [20] can be described thus: Half life in mouse. In kind it is ADME, organism-based. Conditions: in vivo.
Series [21] addresses T1, NAD-dependent protein deacetylase sirtuin-2. The experiment in a line: Inhibition of C-terminal His-tagged SIRT2 (50 to 356 residues) (unknown origin) using Ac-Glu-Thr-Asp-Lys(Myr)-AMC as substrate by fluorescence based analysis.
Another series has as its system HeLa. In words: Cytotoxicity against human HeLa cells assessed as reduction in cell viability incubated for 24 hrs by MTT assay. The format is functional, cell-based.
A further series concerns A549. In words: Cytotoxicity against human A549 cells assessed as reduction in cell viability incubated for 24 hrs by MTT assay. The format is functional, cell-based. Conditions: A549, 24 h.
A further series concerns Staphylococcus aureus. In words: Antibacterial activity against Staphylococcus aureus ATCC 6538 assessed as reduction in bacterial cell growth incubated for 16 hrs by CLSI-based Mueller-Hinton broth dilution method. In kind it is functional.
The subject of series [22] is Staphylococcus epidermidis. The experiment in a line: Antibacterial activity against Staphylococcus epidermidis ATCC 12228 assessed as reduction in bacterial cell growth incubated for 16 hrs by CLSI-based Mueller-Hinton broth dilution method. The format is functional.
The next series has as its system Pseudomonas aeruginosa. The experiment in a line: Antibacterial activity against Pseudomonas aeruginosa ATCC 9027 assessed as reduction in bacterial cell growth incubated for 16 hrs by CLSI-based Mueller-Hinton broth dilution method. The format is functional.

Chain of NAD-dependent protein deacylase sirtuin-5, mitochondrial (Q9NXA8 whole entry): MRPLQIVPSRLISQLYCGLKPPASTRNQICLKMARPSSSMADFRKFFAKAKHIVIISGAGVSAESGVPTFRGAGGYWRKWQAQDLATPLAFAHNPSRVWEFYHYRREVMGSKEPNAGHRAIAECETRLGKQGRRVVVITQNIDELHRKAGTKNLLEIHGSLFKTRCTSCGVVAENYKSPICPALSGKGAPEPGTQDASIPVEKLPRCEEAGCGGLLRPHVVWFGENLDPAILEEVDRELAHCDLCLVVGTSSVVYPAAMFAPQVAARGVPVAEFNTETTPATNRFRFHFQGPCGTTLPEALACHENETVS
Chain of NAD-dependent protein deacetylase sirtuin-3, mitochondrial (Q9NTG7 whole entry): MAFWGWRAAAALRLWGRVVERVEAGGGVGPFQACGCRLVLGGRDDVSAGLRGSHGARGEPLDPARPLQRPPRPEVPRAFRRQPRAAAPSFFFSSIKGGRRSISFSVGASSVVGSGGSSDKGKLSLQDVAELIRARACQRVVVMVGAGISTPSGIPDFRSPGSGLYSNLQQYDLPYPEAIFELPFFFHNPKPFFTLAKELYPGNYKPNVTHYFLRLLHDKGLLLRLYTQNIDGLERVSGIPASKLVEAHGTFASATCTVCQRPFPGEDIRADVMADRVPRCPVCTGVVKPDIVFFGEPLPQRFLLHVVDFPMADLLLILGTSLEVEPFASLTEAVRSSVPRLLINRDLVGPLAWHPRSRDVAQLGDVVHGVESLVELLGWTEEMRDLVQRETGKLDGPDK
Chain of Carbonic anhydrase 1 (P00915 whole entry): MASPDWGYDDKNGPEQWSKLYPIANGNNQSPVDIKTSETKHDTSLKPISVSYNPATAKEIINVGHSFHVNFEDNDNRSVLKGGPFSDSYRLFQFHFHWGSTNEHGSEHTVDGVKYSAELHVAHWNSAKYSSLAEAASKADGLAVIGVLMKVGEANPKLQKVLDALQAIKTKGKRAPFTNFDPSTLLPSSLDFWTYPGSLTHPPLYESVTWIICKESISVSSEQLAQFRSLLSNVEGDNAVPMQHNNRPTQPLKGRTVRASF
Chain of NAD-dependent protein deacetylase sirtuin-1 (Q96EB6 whole entry): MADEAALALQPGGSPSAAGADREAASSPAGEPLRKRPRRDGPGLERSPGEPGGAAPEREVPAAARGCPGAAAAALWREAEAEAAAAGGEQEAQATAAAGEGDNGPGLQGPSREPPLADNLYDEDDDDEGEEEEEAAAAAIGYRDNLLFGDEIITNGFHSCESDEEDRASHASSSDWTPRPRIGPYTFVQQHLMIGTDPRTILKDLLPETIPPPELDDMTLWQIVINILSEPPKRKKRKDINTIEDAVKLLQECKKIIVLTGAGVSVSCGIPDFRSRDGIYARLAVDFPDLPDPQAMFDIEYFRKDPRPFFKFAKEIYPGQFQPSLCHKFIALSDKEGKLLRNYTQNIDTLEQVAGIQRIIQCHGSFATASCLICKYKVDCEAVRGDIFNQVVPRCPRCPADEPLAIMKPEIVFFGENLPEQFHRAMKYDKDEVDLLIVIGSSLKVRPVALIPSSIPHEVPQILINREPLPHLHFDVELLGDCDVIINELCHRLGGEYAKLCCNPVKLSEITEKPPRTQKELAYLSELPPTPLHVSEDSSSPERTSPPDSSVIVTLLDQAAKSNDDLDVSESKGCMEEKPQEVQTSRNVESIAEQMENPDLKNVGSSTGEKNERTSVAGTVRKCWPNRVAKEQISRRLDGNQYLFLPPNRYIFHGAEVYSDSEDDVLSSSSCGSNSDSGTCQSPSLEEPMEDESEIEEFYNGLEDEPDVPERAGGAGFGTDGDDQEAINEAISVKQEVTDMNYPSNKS
Chain of Epidermal growth factor receptor (P00533 whole entry): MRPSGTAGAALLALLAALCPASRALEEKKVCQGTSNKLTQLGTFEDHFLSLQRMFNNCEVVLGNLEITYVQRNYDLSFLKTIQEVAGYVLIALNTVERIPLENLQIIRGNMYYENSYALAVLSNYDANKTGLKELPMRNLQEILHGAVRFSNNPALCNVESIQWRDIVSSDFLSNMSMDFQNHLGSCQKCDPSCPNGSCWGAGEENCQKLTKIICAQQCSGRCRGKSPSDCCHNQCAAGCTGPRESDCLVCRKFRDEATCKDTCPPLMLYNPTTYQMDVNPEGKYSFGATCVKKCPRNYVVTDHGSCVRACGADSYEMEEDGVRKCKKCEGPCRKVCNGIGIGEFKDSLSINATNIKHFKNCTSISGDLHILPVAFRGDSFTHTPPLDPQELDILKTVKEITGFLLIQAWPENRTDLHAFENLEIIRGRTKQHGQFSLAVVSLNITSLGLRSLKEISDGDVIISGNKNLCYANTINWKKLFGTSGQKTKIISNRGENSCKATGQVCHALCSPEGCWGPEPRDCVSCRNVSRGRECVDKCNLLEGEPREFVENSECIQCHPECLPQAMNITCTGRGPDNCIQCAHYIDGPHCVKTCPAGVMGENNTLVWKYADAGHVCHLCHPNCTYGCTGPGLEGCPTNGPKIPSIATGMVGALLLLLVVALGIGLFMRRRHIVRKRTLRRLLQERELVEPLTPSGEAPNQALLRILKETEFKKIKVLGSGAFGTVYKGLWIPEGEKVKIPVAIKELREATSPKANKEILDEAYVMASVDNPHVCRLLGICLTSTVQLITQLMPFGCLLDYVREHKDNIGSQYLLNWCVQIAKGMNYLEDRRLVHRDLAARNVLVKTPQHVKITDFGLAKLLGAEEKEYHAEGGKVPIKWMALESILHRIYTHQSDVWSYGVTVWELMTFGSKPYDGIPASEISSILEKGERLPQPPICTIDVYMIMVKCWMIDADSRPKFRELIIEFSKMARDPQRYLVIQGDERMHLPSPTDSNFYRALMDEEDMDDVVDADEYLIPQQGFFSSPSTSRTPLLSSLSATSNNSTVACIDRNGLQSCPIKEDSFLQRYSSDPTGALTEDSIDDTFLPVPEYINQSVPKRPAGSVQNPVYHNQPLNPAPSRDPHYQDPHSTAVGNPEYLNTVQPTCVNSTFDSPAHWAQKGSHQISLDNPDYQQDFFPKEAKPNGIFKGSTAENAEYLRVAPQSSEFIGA

As for `CN(C)c1ccc(C2CC(c3cccs3)=NN2C(N)=S)cc1` (configuration not stated), the IC50 in series [1] stood at 632 ng/mL (≈ 1910 nM).

Consider `COc1ccc(C2=NN(C(N)=S)C(/C=C/c3ccccc3)C2)cc1` (configuration not stated), for which the IC50 with MCF7 [2] came out at 22.4 µM.

For `NC(=S)N1N=C(c2ccccc2)CC1/C=C/c1ccccc1` (configuration not stated), the IC50 in the series with MCF7 [2] stood at 4.53 µM; in series [3] it was 0.34 µM.

`FC(F)(F)c1ccc(NC(=S)N2CCc3ccccc3C2)cc1` showed an IC50 in series [4] of 11.2 µM.

For the molecule `COc1ccc2ccc3c(c2c1)C(c1c(F)cccc1F)C(C(N)=S)=C(N)O3` (configuration not stated), the values for the IC50 with MCF7 [5], in the series with PC-3 and with HepG2 [6] were 5.4 µM, 1.1 µM and 4.5 µM, respectively.

As to `COc1ccc(-c2cc(-c3ccc(N)cc3)nn2C(N)=S)cc1OC`, the IC50 is 0.0205 µM on Carbonic anhydrase 2 and 0.00513 µM against Carbonic anhydrase 1.

As for `O=C(O)c1cn(C2CC2)c2cc(N3CCN(C(=S)c4ccc([N+](=O)[O-])cc4)CC3)c(F)cc2c1=O`, in [4], the IC50 came to 2.05 µM.

As to `COc1ccc(C2=NN(C(N)=O)C(/C=C/c3ccccc3)C2)cc1` (configuration not stated), in the series on MCF7 [2], the IC50 worked out at 37.7 µM.

In the series with SARS-CoV-2, `COc1ccc(F)c2[nH]c(C(=O)N[C@@H](CC(C)C)C(=O)N[C@@H](C[C@@H]3CCNC3=O)C(=O)c3nc4c(F)cccc4s3)cc12` displayed an EC50 of 0.29 µM.

Take `COc1cc(C2CC(c3ccccc3)=NN2C(N)=S)cc(OC)c1OC` (configuration not stated): halving of growth with HCT-116 [7] (GI50) required 0.15 µM.

With `O=C(O)c1cn(C2CC2)c2cc(N3CCN(C(=S)c4cccc([N+](=O)[O-])c4)CC3)c(F)cc2c1=O`, the IC50 in series [4] came out at 5.87 µM.

`CCCCCCCCCCCCCC(=S)NCCCCC(NC(=O)OCc1ccccc1)C(=O)Nc1ccccc1` (configuration not stated): the IC50 in series [8] and in series [9] was over 200 µM in each case.

`Cc1cc(C)c2c(n1)nn1c(C)c(C(=S)Nc3ccccc3)nnc21`: the results for the IC50 with HCT-116 [10] and in the series on MCF7 [11] were 12.6 µM and 11.7 µM, respectively.

`Cc1cc(C)nc(NC(=S)N2CCN(Cc3ccc(C(F)(F)F)cc3)CC2)c1` had an AUClast in [12] of 147 µg·h/mL. Also, in the series with MDA-MB-231 [13], the concentration for half-maximal inhibition (IC50) turned out to be 8 µM.

`COc1ccc(C2=NN(C(N)=S)C(c3ccc(Cl)cc3)C2)cc1` (configuration not stated): the half-inhibitory concentration (IC50) in the series with MDA-MB-231 [14] came out at 8.5 µM; with HCT-116 [15] it was 5.89 µM; in the series on HepG2 [16], 6.08 µM; in the series with MCF7 [17], 9.37 µM.

Regarding `COc1cccc2[nH]c(C(=O)N[C@@H](CC(C)C)C(=O)N[C@@H](C[C@@H]3CCNC3=O)C(=O)c3nc4ccccc4s3)cc12`, the EC50 with SARS-CoV-2 was 0.29 µM.

Consider `O=C(C(=S)N1CCOCC1)c1ccc(Cl)cc1`, for which the 50% inhibitory concentration (IC50) in the series on HL-60 was 15.5 µM; in the series with MDA-MB-231 [13] it was over 100 µM; in the series with SiHa, 6.6 µM.

Turning to `CC(C)(C)[C@H](NC(=O)C(F)(F)F)C(=O)N1C[C@H]2[C@@H]([C@H]1C(=O)N[C@H](C#N)C[C@H]1CCNC1=O)C2(C)C`, in the series with SARS-CoV-2, a half-maximal effect (EC50) was put at 0.94 µM.

As to `Cc1cccc(C)c1NC(=S)N1CCc2ccccc2C1`, the IC50 in [4] is 11.2 µM.

On to `CCCCCCCCCCCCCC(=O)NCCCCC(NC(=O)OCc1ccccc1)C(=O)Nc1ccccc1` (configuration not stated), for which the IC50 in series [18], in series [8], in series [19] and in [9] was over 200 µM throughout.

`NC(=O)N1N=C(c2ccccc2)CC1/C=C/c1ccccc1` (configuration not stated): in the series on MCF7 [2], the half-inhibitory concentration (IC50) was 19.1 µM.

`NC(=S)N1N=C(c2ccc(Cl)cc2)CC1/C=C/c1ccccc1` (configuration not stated): the IC50 with MCF7 [2] turned out to be 7.18 µM.

For the molecule `O=[N+]([O-])c1ccc(N2CCN(C(=S)NCc3nc4ccccc4s3)CC2)cc1`, in the series listed under Homo sapiens, the inhibition is 67%.

On to `NC(=O)N1N=C(c2ccc(Cl)cc2)CC1/C=C/c1ccccc1` (configuration not stated), for which the IC50 in the series with MCF7 [2] stood at 15.1 µM.

In the case of `CCCCCCCCCCCCNC(=S)NCCCC[C@H](NS(C)(=O)=O)C(=O)N[C@H](C)C(=O)NCCCCNC(=N)N`, in [20], the half-life is under 2 h. This molecule also registered an IC50 in series [21] of 0.1 µM.

Consider `COc1cc(-c2cc(-c3ccc(N)cc3)nn2C(N)=S)cc(OC)c1OC`, for which the IC50 against Carbonic anhydrase 1 was 0.0122 µM.

For `CN(C)c1ccc(C2CC(c3ccc(Cl)cc3)=NN2C(N)=S)cc1` (configuration not stated), the IC50 in the series with HeLa worked out at 17.5 µM; in the series on A549 it was 13.5 µM.

In turn, `CCCCCCCCCCCCCC(=S)NCCCC[C@H](NS(C)(=O)=O)C(=O)N[C@H](C)C(=O)NCCCCNC(=N)N` returned a half-life in series [20] of over 2 h. Further, in series [21], the IC50 was 0.09 µM.

Molecule `COc1ccc(NC(=S)N2CCc3ccccc3C2)cc1` had an IC50 in [4] of 11.2 µM.

In the case of `O=C(O)c1cn(C2CC2)c2cc(N3CCN(C(=S)c4cccc(F)c4)CC3)c(F)cc2c1=O`, the MIC50 (in the series on Staphylococcus aureus; in [22]; in the series on Pseudomonas aeruginosa) was under 3 ng/mL in each case. Moreover, the IC50 in [4] was 4.08 µM.

In the series with SARS-CoV-2, `COc1ccc(F)c2[nH]c(C(=O)N[C@@H](CC(C)C)C(=S)N[C@@H](C[C@@H]3CCNC3=O)C(=O)c3nc4c(F)cccc4s3)cc12` had an EC50 of 0.34 µM.
